Laboratory results: ChEMBL document CHEMBL1201862, “PubChem BioAssay data set” (2004)
Calls of active or inactive are those of the source.

Columns and labels:
[1] = A2780 ovarian cancer cell cytotoxicity, dose response, cytotoxicity control, plate reader, dry powder samples (AID 743046); assay type: functional, cell-based
[2] = cytotoxicity in OVCAR8 ovarian cancer cells, dose response, PAX8 project, cell-based, plate reader, dry powder samples (AID 743197); assay type: functional; settings: OVCAR-8
[3] = inhibitors of HIV Env-driven cell fusion, dose response, cherry-pick (AID 652057); assay type: functional, cell-based
[4] = Shn3 3'UTR reporter inhibitors, dose response, cell-based, Clone20 osteoblasts, firefly luciferase, cherry-picked (AID 624132); assay type: functional;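 note: firefly luciferase luminescence from reporter carrying the Shn3 3'UTR in osteoblasts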
[5] = CEM21 lymphoblast cell cytotoxicity, dose response, cytotoxicity control for viral fusion inhibitor project, CellTiter-Glo luminescence, cherry-picked (AID 652042); assay type: functional, cell-based;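 note: potency for signal decrease meaning cytotoxicity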
[6] = target: Caspase-8 (Homo sapiens, UniProt Q14790); test: caspase-8 inhibition counter-screen, dose response, selectivity assay for caspase-6 inhibitor project, biochemical, Z-IETD-R110 fluorescence, cherry-picked samples (AID 743294)
[7] = target: T1, Caspase-6 (Homo sapiens, UniProt P55212); test: human caspase-6 inhibitors, dose response, biochemical, VEID-R110 fluorescence, cherry-pick (AID 720632)
T1 sequence (P55212 whole entry): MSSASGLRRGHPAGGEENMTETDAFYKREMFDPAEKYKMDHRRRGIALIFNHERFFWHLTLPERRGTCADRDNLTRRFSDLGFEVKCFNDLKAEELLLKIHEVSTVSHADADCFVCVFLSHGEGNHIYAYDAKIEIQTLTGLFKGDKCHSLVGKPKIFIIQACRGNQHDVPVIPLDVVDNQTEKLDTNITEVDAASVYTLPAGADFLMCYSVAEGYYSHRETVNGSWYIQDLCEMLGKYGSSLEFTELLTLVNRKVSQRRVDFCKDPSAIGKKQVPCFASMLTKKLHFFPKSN

[8] = off-target signal loss in HeLa-CEM21 co-culture – HeLa F-luc CTL cells, cherry-picked, counter-screen for HIV-1 Env fusion inhibitor project, dose response (AID 652040); assay type: functional, cell-based;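 note: potency for signal decrease marking cytotoxic or nonspecific inhibition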
[9] = HepG2 cell cytotoxicity, dose response, cytotoxicity control for Shn3 inhibitor project, CellTiter-Glo, cherry-picked (AID 624134); assay type: functional, cell-based
[10] = target: Caspase-7 (Homo sapiens, UniProt P55210); test: human caspase-7 inhibitors, dose response, selectivity assay for caspase-6 inhibitor project, biochemical, DEVD-R110 fluorescence, cherry-pick (AID 743295)
[11] = control 3'UTR Renilla luciferase suppression, dose response, counter-screen for Shn3 inhibitor project, cell-based, Clone20-Shn3RL, cherry-picked (AID 624133); assay type: functional
[12] = inhibitors of clade B AD8 Env fusion, dose response, cell-based, cherry-pick (AID 652062); assay type: functional;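 note: luciferase signal from cell-cell fusion driven by HIV-1 clade B AD8 Env; potency is for inhibitors of fusion seen as a drop in luminescence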
[13] = target: Eukaryotic translation initiation factor 4E (Mus musculus, UniProt P63073); test: eIF4E–eIF4G protein interaction inhibitors, dose response, biochemical, TR-FRET (AID 855); assay type: functional;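 note: potency for disrupting eIF4E binding to eIF4GI seen as loss of FRET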
[14] = inhibitors of PGC1a acetylation in cells, dose response, cell-based, cherry-picked samples (AID 720514); assay type: functional;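 note: potency may reflect raised or lowered acetylation signal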
[15] = inhibitors of intracellular T. cruzi replication, confirmation, NIH3T3 host cells, beta-gal luminescence (AID 2044); assay type: functional, cell-based;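 note: intracellular parasites grown in NIH/3T3 mouse fibroblasts as host cells; luminescent beta-galactosidase reporter signal from transgenic T. cruzi replicating inside host cells; inhibitors lower the luminescence signal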
[16] = cells; assay type: functional, cell-based
[17] = target: Glucose-6-phosphate 1-dehydrogenase (Homo sapiens, UniProt P11413); test: human G6PD enzyme inhibitors, dose response, selectivity assay for P. falciparum G6PD inhibitor project, biochemical, fluorescence (AID 504792); assay type: functional
[18] = HEp-2 cell cytotoxicity, dose response, cytotoxicity control for RSV inhibitor project, HTS (AID 2410); assay type: functional; settings: human respiratory syncytial virus
[19] = cells; assay type: functional, cell-based; remark: listed apart in the source
[20] = cytotoxicity toward NIH3T3 fibroblasts, dose response, counter-screen, cell-based, ATP luminescence, mouse fibroblasts (AID 2010); assay type: functional;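 note: cells exposed to compound for about 90 hours before reading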
[21] = CFTR ΔF508 corrector activity in bronchial cells, dose response, human bronchial epithelial cells, plate reader, cherry-pick, two tests (AID 743267); assay type: functional, cell-based
[22] = target: Tyrosyl-DNA phosphodiesterase 2 (Homo sapiens, UniProt O95551); test: human TDP2 enzyme inhibitors, dose response, biochemical, epi absorbance, IC50 (AID 743297)
[23] = target: T2, Disintegrin and metalloproteinase domain-containing protein 17 (Homo sapiens, UniProt P78536); test: ADAM17 protease inhibitors, dose response, counter-screen for ADAM10 exosite inhibitor project, biochemical, quenched FRET substrate (AID 743253)
[24] = target: T3, Kappa-type opioid receptor (Homo sapiens, UniProt P41145); assay type: functional
[25] = ADAM10 inhibitors, peptide cleavage, dose response, biochemical, QFRET (AID 743254);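 note: ADAM10 enzyme with the DM2 quenched FRET peptide as substrate; EDANS fluorescence gain as the protease cuts the substrate; inhibitor potency against ADAM10 proteolytic activity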
[26] = target: T2, Disintegrin and metalloproteinase domain-containing protein 17; test: exosite inhibitors of ADAM17, dose response, biochemical (AID 743260)
[27] = target: T3, Kappa-type opioid receptor; assay type: functional; remark: listed apart in the source
[28] = target: Beta-galactosidase (Escherichia coli, UniProt Q8VNN2); assay type: functional
[29] = tested on: HeLa; test: HeLa cell cytotoxicity, dose response, cytotoxicity control, ATP luminescence, cherry-pick samples (AID 687004); assay type: functional, cell-based; settings: Homo sapiens
[30] = target: Tyrosine-protein phosphatase non-receptor type 5 (Homo sapiens, UniProt P54829); test: STEP phosphatase inhibitors, confirmation, biochemical, fluorescence intensity, uHTS hits (AID 602372); assay type: functional; settings: read-out: IC50_Mean
[31] = target: Tyrosine-protein phosphatase non-receptor type 11 (Homo sapiens, UniProt Q06124); test: SHP2 phosphatase inhibition, dose response, selectivity assay for STEP inhibitor project, biochemical (AID 602367); assay type: functional; settings: read-out: IC50_Mean
[32] = target: T4, Tyrosine-protein phosphatase non-receptor type 22 (Homo sapiens, UniProt Q9Y2R2); test: PTPN22 phosphatase inhibition, dose response, selectivity assay for STEP inhibitor project, biochemical (AID 624241); assay type: functional
T4 sequence (Q9Y2R2 whole entry): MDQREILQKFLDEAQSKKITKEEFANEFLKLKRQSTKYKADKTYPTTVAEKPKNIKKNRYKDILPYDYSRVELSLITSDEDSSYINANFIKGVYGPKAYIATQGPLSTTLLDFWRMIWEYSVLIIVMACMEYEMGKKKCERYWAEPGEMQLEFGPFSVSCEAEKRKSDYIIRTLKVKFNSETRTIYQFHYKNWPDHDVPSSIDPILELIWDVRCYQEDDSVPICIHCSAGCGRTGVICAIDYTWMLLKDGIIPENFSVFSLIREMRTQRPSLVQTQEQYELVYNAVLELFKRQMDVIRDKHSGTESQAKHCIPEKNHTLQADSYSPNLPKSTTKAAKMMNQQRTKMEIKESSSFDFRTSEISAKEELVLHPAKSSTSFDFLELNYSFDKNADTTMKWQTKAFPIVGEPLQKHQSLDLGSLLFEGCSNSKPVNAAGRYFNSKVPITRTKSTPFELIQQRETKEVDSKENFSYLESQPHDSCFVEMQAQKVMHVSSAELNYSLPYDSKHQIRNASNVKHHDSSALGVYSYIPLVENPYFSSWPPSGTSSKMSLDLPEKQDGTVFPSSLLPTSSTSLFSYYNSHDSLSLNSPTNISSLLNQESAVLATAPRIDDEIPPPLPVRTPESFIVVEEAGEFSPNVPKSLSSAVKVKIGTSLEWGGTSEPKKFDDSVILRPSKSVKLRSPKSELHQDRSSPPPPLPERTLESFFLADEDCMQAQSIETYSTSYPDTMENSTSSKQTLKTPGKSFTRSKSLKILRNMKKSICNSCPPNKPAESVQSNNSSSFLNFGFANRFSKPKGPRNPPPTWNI

[33] = target: Dual specificity protein phosphatase 3 (Homo sapiens, UniProt P51452); test: VHR phosphatase inhibition, dose response, selectivity assay for STEP inhibitor project, biochemical (AID 602374); assay type: functional; settings: read-out: IC50_Mean
[34] = target: Histone-lysine N-methyltransferase NSD2 (Homo sapiens, UniProt O96028); assay type: biochemical

T2 sequence (P78536 whole entry, the tested form may be a part): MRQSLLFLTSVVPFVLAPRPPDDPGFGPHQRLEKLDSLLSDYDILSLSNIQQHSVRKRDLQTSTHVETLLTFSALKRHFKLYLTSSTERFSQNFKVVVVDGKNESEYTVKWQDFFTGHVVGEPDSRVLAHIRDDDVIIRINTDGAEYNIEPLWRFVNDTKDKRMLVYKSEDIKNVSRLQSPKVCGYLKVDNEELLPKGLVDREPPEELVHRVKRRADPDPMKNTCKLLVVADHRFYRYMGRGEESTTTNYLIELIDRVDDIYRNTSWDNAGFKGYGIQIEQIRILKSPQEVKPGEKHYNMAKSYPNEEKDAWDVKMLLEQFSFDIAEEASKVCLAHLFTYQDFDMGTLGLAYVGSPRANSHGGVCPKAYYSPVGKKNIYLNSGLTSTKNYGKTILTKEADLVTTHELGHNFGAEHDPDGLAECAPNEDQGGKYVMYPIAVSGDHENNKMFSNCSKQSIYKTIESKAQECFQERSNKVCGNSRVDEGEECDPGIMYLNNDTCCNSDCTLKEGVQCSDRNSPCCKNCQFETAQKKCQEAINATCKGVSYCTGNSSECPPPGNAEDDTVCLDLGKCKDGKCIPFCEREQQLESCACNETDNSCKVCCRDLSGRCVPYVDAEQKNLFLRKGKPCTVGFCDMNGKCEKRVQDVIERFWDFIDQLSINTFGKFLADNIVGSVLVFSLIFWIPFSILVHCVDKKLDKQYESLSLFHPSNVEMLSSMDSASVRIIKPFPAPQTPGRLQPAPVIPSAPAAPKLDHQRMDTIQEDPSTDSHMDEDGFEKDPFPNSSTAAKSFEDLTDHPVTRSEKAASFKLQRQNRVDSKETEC
T3 sequence (P41145 whole entry): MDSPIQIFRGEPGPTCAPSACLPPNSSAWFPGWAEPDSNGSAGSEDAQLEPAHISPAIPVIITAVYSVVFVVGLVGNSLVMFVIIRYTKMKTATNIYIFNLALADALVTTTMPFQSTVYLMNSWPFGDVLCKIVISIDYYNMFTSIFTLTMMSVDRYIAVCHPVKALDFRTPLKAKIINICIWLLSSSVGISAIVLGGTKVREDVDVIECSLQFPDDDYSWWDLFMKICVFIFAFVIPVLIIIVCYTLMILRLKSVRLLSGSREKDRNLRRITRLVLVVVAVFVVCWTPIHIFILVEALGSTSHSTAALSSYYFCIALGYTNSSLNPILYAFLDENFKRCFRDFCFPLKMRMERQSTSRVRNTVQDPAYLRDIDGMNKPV
Tyrosyl-DNA phosphodiesterase 2, sequence (O95551 whole entry, the tested form may be a part): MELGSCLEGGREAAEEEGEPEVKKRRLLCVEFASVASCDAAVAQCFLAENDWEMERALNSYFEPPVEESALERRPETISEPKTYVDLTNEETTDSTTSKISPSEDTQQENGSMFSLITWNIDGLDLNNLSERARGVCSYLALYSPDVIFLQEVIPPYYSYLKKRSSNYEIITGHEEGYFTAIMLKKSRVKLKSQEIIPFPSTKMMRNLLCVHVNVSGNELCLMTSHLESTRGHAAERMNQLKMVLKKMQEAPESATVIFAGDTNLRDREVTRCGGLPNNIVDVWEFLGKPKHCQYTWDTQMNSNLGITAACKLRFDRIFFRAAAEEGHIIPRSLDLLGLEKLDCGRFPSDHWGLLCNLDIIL
Glucose-6-phosphate 1-dehydrogenase, sequence (P11413 whole entry): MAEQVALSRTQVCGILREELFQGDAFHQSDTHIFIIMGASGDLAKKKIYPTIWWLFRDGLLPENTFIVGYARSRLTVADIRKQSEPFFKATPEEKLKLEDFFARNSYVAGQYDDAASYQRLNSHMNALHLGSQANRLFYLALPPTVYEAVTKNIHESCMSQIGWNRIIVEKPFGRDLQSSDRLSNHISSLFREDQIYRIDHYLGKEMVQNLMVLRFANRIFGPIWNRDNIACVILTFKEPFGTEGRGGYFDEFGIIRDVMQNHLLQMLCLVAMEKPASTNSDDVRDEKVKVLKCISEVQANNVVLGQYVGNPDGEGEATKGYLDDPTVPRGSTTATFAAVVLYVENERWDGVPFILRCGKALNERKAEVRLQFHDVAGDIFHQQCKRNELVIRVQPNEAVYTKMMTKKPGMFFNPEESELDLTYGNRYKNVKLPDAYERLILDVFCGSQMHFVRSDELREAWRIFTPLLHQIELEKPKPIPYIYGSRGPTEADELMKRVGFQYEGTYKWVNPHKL
Tyrosine-protein phosphatase non-receptor type 5, sequence (P54829 whole entry): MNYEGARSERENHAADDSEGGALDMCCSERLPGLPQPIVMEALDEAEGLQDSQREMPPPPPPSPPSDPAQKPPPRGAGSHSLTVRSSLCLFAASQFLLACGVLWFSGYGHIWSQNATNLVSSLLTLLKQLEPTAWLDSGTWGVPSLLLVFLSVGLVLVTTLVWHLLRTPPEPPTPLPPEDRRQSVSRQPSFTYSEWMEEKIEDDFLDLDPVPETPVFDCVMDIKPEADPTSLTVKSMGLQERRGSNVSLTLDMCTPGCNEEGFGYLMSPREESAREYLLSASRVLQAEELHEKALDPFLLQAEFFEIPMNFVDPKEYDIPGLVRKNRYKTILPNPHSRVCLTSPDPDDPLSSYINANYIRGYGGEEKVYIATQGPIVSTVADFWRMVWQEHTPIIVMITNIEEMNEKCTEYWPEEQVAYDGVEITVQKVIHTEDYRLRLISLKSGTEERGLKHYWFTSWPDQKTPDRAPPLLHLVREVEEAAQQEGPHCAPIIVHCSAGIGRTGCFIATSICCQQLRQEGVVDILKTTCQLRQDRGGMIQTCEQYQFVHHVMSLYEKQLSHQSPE
Caspase-7, sequence (P55210 24-198 limits assumed): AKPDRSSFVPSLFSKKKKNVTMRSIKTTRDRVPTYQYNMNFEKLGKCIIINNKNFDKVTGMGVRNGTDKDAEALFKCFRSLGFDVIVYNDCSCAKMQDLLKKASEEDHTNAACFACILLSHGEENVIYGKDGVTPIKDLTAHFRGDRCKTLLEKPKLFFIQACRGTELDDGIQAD
Caspase-7, sequence (P55210 207-303 limits assumed): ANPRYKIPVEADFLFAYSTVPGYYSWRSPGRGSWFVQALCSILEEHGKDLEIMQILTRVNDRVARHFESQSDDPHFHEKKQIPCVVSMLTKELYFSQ
Tyrosine-protein phosphatase non-receptor type 11, sequence (Q06124 whole entry): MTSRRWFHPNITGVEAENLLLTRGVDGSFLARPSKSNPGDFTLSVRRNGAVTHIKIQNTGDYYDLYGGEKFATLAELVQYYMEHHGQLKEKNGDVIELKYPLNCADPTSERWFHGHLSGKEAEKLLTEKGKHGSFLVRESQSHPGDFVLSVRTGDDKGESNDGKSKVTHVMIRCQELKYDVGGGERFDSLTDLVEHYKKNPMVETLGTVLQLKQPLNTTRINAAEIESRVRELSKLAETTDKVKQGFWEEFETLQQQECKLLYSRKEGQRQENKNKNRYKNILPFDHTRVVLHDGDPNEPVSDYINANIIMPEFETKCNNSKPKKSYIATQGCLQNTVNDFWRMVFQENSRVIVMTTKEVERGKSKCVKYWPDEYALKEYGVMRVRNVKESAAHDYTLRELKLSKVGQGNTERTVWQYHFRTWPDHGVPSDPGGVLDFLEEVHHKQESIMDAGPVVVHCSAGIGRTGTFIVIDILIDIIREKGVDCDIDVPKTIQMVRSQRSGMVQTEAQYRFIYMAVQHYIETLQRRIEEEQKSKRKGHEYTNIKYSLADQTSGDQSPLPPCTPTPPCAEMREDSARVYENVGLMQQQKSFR
Dual specificity protein phosphatase 3, sequence (P51452 whole entry): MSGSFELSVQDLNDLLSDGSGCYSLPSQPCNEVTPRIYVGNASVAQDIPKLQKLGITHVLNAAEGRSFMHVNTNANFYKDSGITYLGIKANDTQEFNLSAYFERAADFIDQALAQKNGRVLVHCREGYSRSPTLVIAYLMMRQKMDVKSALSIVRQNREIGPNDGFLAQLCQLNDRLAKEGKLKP
Beta-galactosidase, sequence (Q8VNN2 whole entry): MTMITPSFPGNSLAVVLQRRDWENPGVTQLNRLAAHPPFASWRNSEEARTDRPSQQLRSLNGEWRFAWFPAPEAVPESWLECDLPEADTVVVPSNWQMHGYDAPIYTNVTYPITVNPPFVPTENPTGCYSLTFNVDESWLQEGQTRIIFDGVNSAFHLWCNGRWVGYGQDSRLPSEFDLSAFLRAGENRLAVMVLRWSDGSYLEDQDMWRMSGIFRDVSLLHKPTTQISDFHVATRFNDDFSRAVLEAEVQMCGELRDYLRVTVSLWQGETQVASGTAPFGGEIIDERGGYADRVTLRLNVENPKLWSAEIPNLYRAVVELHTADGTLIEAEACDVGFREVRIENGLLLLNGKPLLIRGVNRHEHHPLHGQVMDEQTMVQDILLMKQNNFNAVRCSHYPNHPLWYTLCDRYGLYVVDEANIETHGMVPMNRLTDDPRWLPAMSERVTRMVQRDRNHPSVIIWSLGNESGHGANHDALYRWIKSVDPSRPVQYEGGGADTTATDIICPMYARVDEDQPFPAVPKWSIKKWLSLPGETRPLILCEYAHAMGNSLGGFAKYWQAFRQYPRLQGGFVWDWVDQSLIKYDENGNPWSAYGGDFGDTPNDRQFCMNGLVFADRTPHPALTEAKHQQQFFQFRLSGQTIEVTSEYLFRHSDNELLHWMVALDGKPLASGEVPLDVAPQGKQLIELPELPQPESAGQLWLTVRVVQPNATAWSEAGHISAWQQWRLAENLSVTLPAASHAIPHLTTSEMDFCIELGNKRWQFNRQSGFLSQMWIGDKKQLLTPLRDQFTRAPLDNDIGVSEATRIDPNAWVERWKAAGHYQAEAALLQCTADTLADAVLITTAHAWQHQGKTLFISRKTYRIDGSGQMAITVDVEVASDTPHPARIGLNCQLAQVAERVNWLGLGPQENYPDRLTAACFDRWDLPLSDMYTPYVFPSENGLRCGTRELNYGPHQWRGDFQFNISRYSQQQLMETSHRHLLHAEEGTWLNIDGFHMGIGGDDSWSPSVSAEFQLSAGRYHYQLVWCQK
Eukaryotic translation initiation factor 4E, sequence (P63073 whole entry): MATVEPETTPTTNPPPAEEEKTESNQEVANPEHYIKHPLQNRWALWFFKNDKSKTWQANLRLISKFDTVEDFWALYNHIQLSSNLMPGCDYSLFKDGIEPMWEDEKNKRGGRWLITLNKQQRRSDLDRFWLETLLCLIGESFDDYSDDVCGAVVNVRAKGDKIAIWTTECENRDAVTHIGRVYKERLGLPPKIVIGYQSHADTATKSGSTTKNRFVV

Question: With `C[C@H]1CN([C@@H](C)CO)C(=O)c2cccc(NC(=O)Nc3ccc(C(F)(F)F)cc3)c2O[C@H]1CN(C)C(=O)NC1CCCCC1` as the compound, how does the AC50 [1] read?
Answer: 11.9 µM (active)

Question: What about the AC50 [2] of the same compound?
Answer: > 70 µM (inactive)

Question: What does the source list for `Nc1cc2c(cc1Br)nc(O)c1ccccc12`?
Answer: AC50 [3]: 3.76 µM (active); AC50 [4]: 5.46 µM (active); AC50 [5]: 9.39 µM (active); AC50 [6]: 5.26 µM (active); AC50 [7]: 3.87 µM (active); AC50 [8]: 22.9 µM (active); AC50 [9]: 45.8 µM (active); AC50 [10]: 2.6 µM (active); AC50 [11]: 22.9 µM (active); AC50 [12]: 21.6 µM (active)

Question: Which IC50 [13] does the source give for `COCCSc1ccccc1C(=O)Nc1cc(C)on1` here?
Answer: > 64 µM (inactive)

Question: And the AC50 [14]?
Answer: 1.06 µM (active)

Question: With `COc1ccc(Nc2cc(C)c3c(O)cccc3n2)cc1` as the compound, how does the EC50 [15] read?
Answer: 1.94 µM (active)

Question: And the IC50 [16]?
Answer: > 29.9 µM (inactive)

Question: What about the IC50 [17] of the same compound?
Answer: 56.3 µM (inactive)

Question: And the CC50 [18]?
Answer: 22.6 µM (active)

Question: What about the EC50 [19] of the same compound?
Answer: > 29.9 µM (inactive)

Question: What about the EC50 [20] of the same compound?
Answer: > 60 µM (inconclusive)

Question: For `COc1cccc(-c2cc3nc(-c4ccccc4)cc(O)n3n2)c1`, which AC50 [21] is on record?
Answer: 2.35 µM (active)

Question: With `Cc1cccc2cc(C=C3C(=O)NC(=O)NC3=O)c(O)nc12` as the compound, how does the IC50 [22] read?
Answer: > 128 µM (inactive)

Question: For `COCC/N=c1\scc(-c2cc(OC)ccc2OC)n1/N=C/c1c[nH]c2ccccc12`, which IC50 [23] is on record?
Answer: > 69.5 µM (inactive)

Question: And the IC50 [24]?
Answer: 3.86 µM

Question: And the IC50 [25]?
Answer: > 69.5 µM (inactive)

Question: What about the IC50 [26] of the same compound?
Answer: > 69.5 µM (inactive)

Question: And the IC50 [27]?
Answer: 9.65 µM (active)

Question: What about the EC50 [28] of the same compound?
Answer: > 31.5 µM (inactive)

Question: With `COC(=O)C1=C(C)N(Cc2ccc(F)cc2)C(=S)NC1c1ccc(Cl)cc1` (centres undefined) as the compound, how does the AC50 [29] read?
Answer: > 52 µM (inactive)

Question: For `CC(=O)c1ccc(S(=O)(=O)Nc2cccc(-n3cnnn3)c2)cc1`, which IC50 [30] is on record?
Answer: 17.4 µM (active)

Question: And the IC50 [31]?
Answer: 0.526 µM (active)

Question: And the IC50 [32]?
Answer: 11.4 µM (active)

Question: And the IC50 [33]?
Answer: 1.51 µM (active)

Question: And the AC50 [34]?
Answer: 12.9 µM (active)
